Data: BindingDB's records for doi:10.1016/j.bmc.2013.02.037 (Chungnam National University, 2013)

Assay: Inhibition interleukin-5 in mouse Y16 cells after 48 hrs by WST-1 assay

| SMILES | IC50 [µM] |
| --- | --- |
| O=C(CCc1coc2cccc(OCC3CCCCC3)c2c1=O)c1ccc(F)cc1 | 20 |
| O=c1c(CCC(O)c2ccc(C(F)(F)F)cc2)coc2cccc(OCC3CCCCC3)c12 (centres undefined) | > 30 |
| O=C(CCC1COc2cccc(OCC3CCCCC3)c2C1=O)c1ccc(Cl)c(Cl)c1 (centres undefined) | > 30 |
| O=c1c(CCC(O)c2ccc(Cl)c(Cl)c2)coc2cccc(OCC3CCCCC3)c12 (centres undefined) | 7.9 |
| COc1ccc(C(=O)CCC2COc3cccc(OCC4CCCCC4)c3C2=O)cc1 (centres undefined) | > 30 |
| O=c1c(CCC(O)c2ccc(F)cc2)coc2cccc(OCC3CCCCC3)c12 (centres undefined) | 9 |
| O=C(CCc1coc2cccc(OCC3CCCCC3)c2c1=O)c1ccccc1 | > 30 |
| COc1ccc(C(=O)CCc2coc3cccc(OCC4CCCCC4)c3c2=O)cc1 | 16 |
| N#Cc1ccc(C(O)CCc2coc3cccc(OCC4CCCCC4)c3c2=O)cc1 (centres undefined) | 15 |
| O=c1c(CCC(O)c2ccc(Cl)cc2)coc2cccc(OCC3CCCCC3)c12 (centres undefined) | 9 |

More lines, now with the values ahead:

| IC50 [µM] | SMILES |
| --- | --- |
| 17 | O=c1c(CCC(O)c2ccc3ccccc3c2)coc2cccc(OCC3CCCCC3)c12 (centres undefined) |
| 4 | O=c1c(CCC(O)c2ccc(O)cc2)coc2cccc(OCC3CCCCC3)c12 (centres undefined) |
| 12 | O=c1c(CCC(O)c2ccccc2)coc2cccc(OCC3CCCCC3)c12 (centres undefined) |
| 14 | O=C(CCc1coc2cccc(OCC3CCCCC3)c2c1=O)c1ccc(Cl)cc1 |
| 6.5 | COc1ccc(C(O)CCc2coc3cccc(OCC4CCCCC4)c3c2=O)cc1 (centres undefined) |
| 17 | N#Cc1ccc(C(=O)CCc2coc3cccc(OCC4CCCCC4)c3c2=O)cc1 |
| > 30 | O=C(CCc1coc2cccc(OCC3CCCCC3)c2c1=O)c1ccc(C(F)(F)F)cc1 |
| > 30 | Cc1ccc(C(=O)CCc2coc3cccc(OCC4CCCCC4)c3c2=O)cc1 |
| > 30 | Cc1ccc(C(O)CCc2coc3cccc(OCC4CCCCC4)c3c2=O)cc1 (centres undefined) |
| > 30 | CC(C)(C)c1ccc(C(O)CCc2coc3cccc(OCC4CCCCC4)c3c2=O)cc1 (centres undefined) |
| 15 | O=C(CCc1coc2cccc(OCC3CCCCC3)c2c1=O)c1ccc(O)cc1 |
| > 30 | CC(C)(C)c1ccc(C(=O)CCc2coc3cccc(OCC4CCCCC4)c3c2=O)cc1 |
| 22 | O=C(CCc1coc2cccc(OCC3CCCCC3)c2c1=O)c1ccc(Cl)c(Cl)c1 |
| > 30 | O=C(CCc1coc2cccc(OCC3CCCCC3)c2c1=O)c1ccc2ccccc2c1 |
